Data taken from patent US10806798B2, “Compound with effects of thrombolysis, free radical scavenging and thrombus-targeting” (Shanghai Lumosa Therapeutics Co., Ltd., priority 2012, dated 2020).

Test system: rats with stroke
Test: Successive treatments with 1 μmol/kg Ie starting 6 h after the onset of stroke (Zealonga scores)
Assay type: in vivo, SD rats
Description: The efficacy was represented by neural function scores, and a lower score indicates higher efficacy. A 10% chloral hydrate solution was injected intraperitoneally into male SD rats at a dosage of 400 mg/kg body weight for anesthesia. A longitudinal open incision was made at the center of the neck, and the right common carotid artery trunk was dissected (about 3 cm in length). Carotid external artery branches were each dissected and ligated at the hyoid level, and the carotid internal artery was dissected at the swollen part of the neck. The open incision in the carotid internal artery and the proximal end of the common carotid artery were occluded respectively with noninvasive arterial clips, and the distal end of the carotid external artery was ligated. A catheter containing 0.5 mL thrombus suspension in normal saline was inserted in the carotid external artery trunk. At the same time when the clip on the carotid internal artery was released, the 0.5 mL thrombus suspension in normal saline in the catheter slowly flew from the carotid external artery to its proximal end, and then was injected into the arteries in brain through the carotid internal artery. Subsequently, the proximal end of the carotid artery was ligated, the arterial clips on the carotid internal artery and the common carotid artery were released, and blood flow was restored. After the wound was stitched up, 20,000 IU penicillin was intramuscularly injected for prevention from infection. After 6 h, compound Ie in normal saline (at a dosage of 1 μmol/kg, n=11), urokinase in normal saline (at a dosage of 20000 IU/kg, n=6) or tPA in normal saline (at a dosage of 3 mg/kg, n=6) was infused through the tail vein. Infusion of compound Ie in normal saline through rat tail vein was carried out once per day for 6 consecutive days, observed for 7 days. The rats were compared to themselves each day, and evaluated for the degree of damage in neural function by the Zealonga method. Alternatively, infusion of urokinase in normal saline through rat tail vein was carried out once per day for two consecutive days, the rats were compared to themselves each day, and evaluated for the degree of damage in neural function by the Zealonga method. Alternatively, infusion of tPA in normal saline through rat tail vein was carried out once per day for two consecutive days, the rats were compared to themselves each day, and evaluated for the degree of damage in neural function by the Zealonga method. A score of 0 indicated no sign of loss in neural function, 1 indicated the front limbs on the undamaged side could not stretch out, 2 indicated walking toward the undamaged side, 3 indicated tail-chasing walking in circles toward the undamaged side, 4 indicated involuntary walking with disturbance of consciousness, and 5 indicated death.

[1] = Day 1, urokinase 20000 IU/kg once per day from 6 h after stroke onset, n=6
[2] = Day 2, urokinase 20000 IU/kg once per day from 6 h after stroke onset, n=6

In the case of urokinase, the “number of rats scored Score 1” value [1] is reported as 1 rat rats, the “number of rats scored Score 2” value [1] is reported as 1 rat rats and the “number of rats scored Score 3” value [1] is reported as 4 rats. The “number of rats scored Score 0” value [2] was 1 rat rats, the “number of rats scored Score 2” value [2] was 1 rat rats and the rats died (out of 6 rats, within 24 h, urokinase 20000 IU/kg each day from 6 h after stroke onset) was 4. For the same substance, the “autopsy on the dead rats” value (urokinase 20000 IU/kg each day from 6 h after stroke onset) was “hemorrhage in internal organs, particularly severe hemorrhage in lungs”.
